In one experiment the test system is PAR1−/− mouse astrocytes. The experiment is described as follows: Fura-2 intracellular Ca2+ imaging in cultured PAR1−/− astrocytes. In kind it is cell-based. Conditions: 30 μM TFLLR, 30 nM thrombin, 10 μM ATP positive control. The procedure: Cultured astrocytes were prepared from P0-P3 postnatal mice obtained from KIST SPF. The cerebral cortex was dissected free of adherent meninges, minced, and dissociated into single cell suspension by trituration through a Pasteur pipette. All procedures involving the use of animals were reviewed and approved by the Emory University IACUC. Dissociated cells were plated onto either 12 mm glass coverslips or 6 well plates coated with 0.1 mg/ml poly-D-lysine. Cells were grown in a DMEM media (Gibco, cat# 11960-044) supplemented with 25 mM glucose, 10% heat-inactivated horse serum, and 10% heat-inactivated fetal bovine serum, 2 mM glutamine, and 1000 units/ml penicillin-streptomycin. Cultures were maintained at 37° C. in a humidified 5% CO2-containing atmosphere. Astrocyte cultures prepared in this way were previously determined by GFAP (glial fibrillary acidic protein) staining to be greater than 95% astrocytes (Nicole et al., 2005). In some experiments, the culture media was replaced 24 hours after plating with DMEM with all added components except glutamine, and cultures were maintained for 4 days before experimentation in glutamine-free media.
Cultured astrocytes were incubated with 5 µM Fura2-AM in […] pluronic acid (Molecular Probes) for 30 min at room temperature, and subsequently transferred to a microscope stage for imaging. […]

Experiment [1] has as its system NMDA receptor-mediated component of the EPSP. The experiment can be described thus: Current clamp EPSP recording in CA1 pyramidal cells. In kind it is cell-based, rat. Conditions: 30 μM TFLLR, 30 nM thrombin. The procedure: Young rats (Sprague-Dawley, age P15-P20) or mice (C57/B16, age P14-19) were deeply anesthetized with isoflurane and decapitated. The brain was rapidly removed and submerged in an ice-cold oxygenated artificial cerebrospinal fluid (ACSF) comprised of 130 mM NaCl, 24 mM NaHCO3, 3.5 mM KCl, 1.25 mM NaH2PO4, 1 mM CaCl2,3 mM MgCl2, and 10 mM glucose saturated with 95% O2/5% CO2, at pH 7.4.
The hemisected brain was glued onto the stage of a vibrating microtome (Leica VT1000 S) and sections of 300 μm thickness were cut and stored in an incubation chamber at room temperature for about 1 h before use. […]
Synaptic responses were evoked by applying 0.1 ms current injection (1-100 μA) to a bipolar stimulating electrode placed in the stratum radiatum. Thrombin (Calbiochem) concentration was determined as described by Gingrich et al. (2000) using conversion of 1 U/ml=10 nM. […]
A series of current clamp experiments were carried out to directly measure the effects of PAR1 activation on the NMDA receptor-mediated component of the EPSP recorded in the presence of 1.5 mM Mg^2+. […]

For another experiment, the target named is T1, NR1/NR2A receptors (Homo sapiens, UniProt Q05586+Q12879).
T1 construct: expressed in transfected cells; host or cells: HEK 293 cells
T1 sequence (Q12879 23-1464, other chains not shown): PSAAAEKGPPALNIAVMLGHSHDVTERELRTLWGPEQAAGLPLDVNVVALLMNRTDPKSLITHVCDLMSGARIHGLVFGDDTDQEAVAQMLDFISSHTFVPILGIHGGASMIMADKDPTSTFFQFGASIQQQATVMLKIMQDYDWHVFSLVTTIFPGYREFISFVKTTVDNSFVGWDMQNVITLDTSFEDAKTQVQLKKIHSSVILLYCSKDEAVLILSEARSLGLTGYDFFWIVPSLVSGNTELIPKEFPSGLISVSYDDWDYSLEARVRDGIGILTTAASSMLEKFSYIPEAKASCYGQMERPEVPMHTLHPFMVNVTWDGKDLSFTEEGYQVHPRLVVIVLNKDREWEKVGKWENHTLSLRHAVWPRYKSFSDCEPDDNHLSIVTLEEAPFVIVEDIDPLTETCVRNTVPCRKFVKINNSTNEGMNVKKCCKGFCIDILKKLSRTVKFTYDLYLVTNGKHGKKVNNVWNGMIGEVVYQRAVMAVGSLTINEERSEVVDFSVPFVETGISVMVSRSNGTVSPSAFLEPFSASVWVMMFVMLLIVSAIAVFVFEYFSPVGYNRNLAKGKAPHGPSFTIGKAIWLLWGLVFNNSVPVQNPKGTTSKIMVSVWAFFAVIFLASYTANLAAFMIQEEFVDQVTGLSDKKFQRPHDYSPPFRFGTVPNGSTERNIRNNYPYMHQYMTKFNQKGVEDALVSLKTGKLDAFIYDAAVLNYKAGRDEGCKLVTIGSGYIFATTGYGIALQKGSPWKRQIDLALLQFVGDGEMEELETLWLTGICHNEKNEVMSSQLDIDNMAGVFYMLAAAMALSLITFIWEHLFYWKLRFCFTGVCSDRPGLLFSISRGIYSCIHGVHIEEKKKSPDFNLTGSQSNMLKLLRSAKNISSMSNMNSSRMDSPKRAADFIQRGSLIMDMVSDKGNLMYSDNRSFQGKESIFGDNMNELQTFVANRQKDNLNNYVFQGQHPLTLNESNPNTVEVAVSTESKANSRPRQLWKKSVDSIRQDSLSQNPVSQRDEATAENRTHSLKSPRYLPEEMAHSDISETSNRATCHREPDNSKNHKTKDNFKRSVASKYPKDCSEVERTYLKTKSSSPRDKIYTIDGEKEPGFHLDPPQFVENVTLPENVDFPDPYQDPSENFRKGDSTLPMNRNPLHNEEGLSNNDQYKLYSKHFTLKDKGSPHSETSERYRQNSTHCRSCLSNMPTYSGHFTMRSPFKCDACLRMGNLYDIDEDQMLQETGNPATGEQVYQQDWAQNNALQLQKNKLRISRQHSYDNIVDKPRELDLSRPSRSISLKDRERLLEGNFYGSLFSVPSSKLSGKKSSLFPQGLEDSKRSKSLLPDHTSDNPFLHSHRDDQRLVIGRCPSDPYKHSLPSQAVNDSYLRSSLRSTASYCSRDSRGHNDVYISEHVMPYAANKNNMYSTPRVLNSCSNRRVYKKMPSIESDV
The experiment is described as follows: Glutamate-induced currents in NR1/NR2A transfected HEK 293 cells, perforated patch. In kind it is cell-based. Conditions: 30 nM thrombin 30 s, −60 mV and +60 mV. The procedure: Whole-cell perforated-patch recording from cultured cortical neurons or HEK cells under voltage clamp (holding potential −60 mV) was made with an Axopatch 200B amplifier (Axon Instruments, Union City, Calif.). The recording chamber was continually perfused with a recording solution comprised of 150 mM NaCl, 3 mM KCl, 2 mM CaCl2, 5.5 mM glucose, and 10 mM HEPES (pH 7.4 by NaOH; osmolality adjusted to 315-320 mOsm with sucrose). Recording electrodes (4-7 MΩ) were filled with (in mM) 150 mM CsMeSO4, 10 mM NaCl, 0.5 CaCl2, 10 mM HEPES, and 25-50 μg/ml gramicidin D (pH adjusted to 7.3 with CsOH and osmolality adjusted to 310 mOsm with sucrose). It took 20-30 min to achieve acceptable perforation with series resistance ranging from 30-60 MΩ. All electrophysiological data from cultured neurons cells in this study were collected at room temperature (23-26° C.).
The external solution included 0.2 mM MgCl2, 2 mM CaCl2, 100 nM ZnCl2, and 50 μM glycine. […] The response from the same cell is shown after a treatment of 30 nM thrombin for 30 s. […] The peak amplitudes of glutamate-induced currents were compared before and after thrombin treatment at −60 mV and +60 mV holding potentials.

Regarding thrombin, in the experiment with PAR1−/− mouse astrocytes, the “intracellular Ca^2+ concentration in PAR1−/− astrocytes” value is “did not cause an increase”. In experiment [1], the “potentiation of synaptic NMDA component of EPSPs at 34° C.” value came to 120±6%. Further, the “glutamate-induced current profile before and after thrombin” value at NR1/NR2A receptors is “no change”.

These data come from patent publication US20080299109A1, “MECHANISM OF ASTRICYTE-NEURON SIGNALING” (Korea Institute of Science and Technology, priority 2007, published 2008).
